From PMC8910297, “Investigation of the Molecular Details of the Interactions of Selenoglycosides and Human Galectin-3” (International Journal of Molecular Sciences, 2022)
Read-outs that look alike come from different tables or passages of the source.

Tests used:
[1] = biological target: T1, Human galectin-3 (hGal-3) (Homo sapiens, UniProt P17931); assay: biochemical
T1 construct: gene LGALS3

[2] = biological target: T1, Human galectin-3 (hGal-3); assay: biochemical; remark: listed apart in the source

T1 sequence (P17931 108-250): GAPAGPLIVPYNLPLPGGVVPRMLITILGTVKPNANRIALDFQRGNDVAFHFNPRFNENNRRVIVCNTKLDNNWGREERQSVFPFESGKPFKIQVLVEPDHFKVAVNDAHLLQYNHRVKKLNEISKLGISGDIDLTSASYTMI

How did the Kd [1] turn out when `OC[C@H]1O[C@@H]([Se][Se][C@@H]2O[C@H](CO)[C@H](O)[C@H](O)[C@H]2O)[C@H](O)[C@@H](O)[C@H]1O` [DSeDG, di(β-D-galactopyranosyl)diselenide] was run?
The Kd was 8.5 ± 2.5 mM.

Which Kd [2] does the source give for `OC[C@H]1O[C@@H]([Se][C@@H]2O[C@H](CO)[C@H](O)[C@H](O)[C@H]2O)[C@H](O)[C@@H](O)[C@H]1O` [SeDG, di(β-D-galactopyranosyl)selenide] here?
Its Kd is 0.0352 ± 0.0072 mM.
